# Counter-ions that a name gives are not always drawn.
# Test system: SB.msgc-1
# Assay: AC50 for growth inhibition (viability) (log10 M); higher = less potent
# Settings: SB.msgc-1 (sporadic gastric cancer)
# Outline: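 Gastric cancer cells from hereditary or sporadic patients, 500 per 1536 well, were exposed to compound for 48 h over 11 threefold dilutions from a final 46 μM. CellTiter-Glo luminescence, read on a ViewLux, measured viability, which was normalised to DMSO. The log half-maximal activity concentration came from four-parameter fits, and only high-quality curve classes were kept.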
row,Compound,AC50 for growth inhibition (log10 M)
1,O=C(O)CCCc1ccc(N(CCCl)CCCl)cc1 [Chlorambucil],-5.33
2,C=C[C@H]1CN2CCC1C[C@H]2[C@H](O)c1ccnc2ccccc12 (stereo partly specified) [Cinchonidine],-4.98
3,CN(C)CCCC1(c2ccc(F)cc2)OCc2cc(C#N)ccc21 (stereo unspecified) [Citalopram hydrobromide],-4.83
4,CCCCCCCCCCCCCCCC(=O)O[C@@H]1[C@@H](O)[C@@H](O)[C@@H]([C@H](NC(=O)[C@@H]2C[C@@H](CCC)CN2C)[C@H](C)Cl)O[C@@H]1SC.Cl [Clindamycin palmitate],-4.78
5,Clc1ccccc1C(c1ccccc1)(c1ccccc1)n1ccnc1 [Clotrimazole],-4.83
6,Nc1ncnc2c1ncn2[C@@H]1O[C@H](CO)C[C@H]1O [Cordycepin],-4.73
7,C=C1C(=O)OC2/C=C(/C)CC/C=C(/C)CCC12 (stereo unspecified) [Costunolide],-4.68
8,CC1(COc2ccc3c(c2)ncn3-c2ccc3cccc(N4CCC(N)CC4)c3n2)COC1 [Crenolanib],-7.38
9,C/C=C/C(=O)N(CC)c1ccccc1C [Crotamiton],-4.98
10,COc1cc(/C=C/C(=O)CC(=O)/C=C/c2ccc(O)c(OC)c2)ccc1O [Curcumin],-4.37
11,NC\1=N\C(=O)N(\C=C1)[C@@H]2O[C@H](CO)[C@@H](O)[C@@H]2O [Cytarabine],-7.18
12,NC(=O)c1ccc(-c2nc(-c3ccc4c(c3)OCCO4)c(-c3ccccn3)[nH]2)cc1 [D-4476],-4.73
13,CCCCCCCCCCCCCC(=O)N[C@H](CO)[C@H](O)c1ccc([N+](=O)[O-])cc1 [D-NMAPPD],-4.93
14,CNC(=O)c1cc(Oc2ccc(NC(=O)Nc3cc(C(C)(C)C)nn3-c3ccc4ncccc4c3)c(F)c2)ccn1 [DCC-2036],-5.63
15,CCCCCN(CCC12CC3CC(CC(C3)C1)C2)C(=O)NCCCc1ccncc1 [DE-096],-4.73
16,CO[C@@H](C(=O)N1Cc2[nH]nc(NC(=O)c3ccc(N4CCN(C)CC4)cc3)c2C1)c1ccccc1 [Danusertib],-5.53
17,O=C(/C=C/c1cccnc1)NCCCCC1CCN(C(=O)c2ccccc2)CC1 [Daporinad],-6.08
18,CC(C)CN(C[C@@H](O)[C@H](Cc1ccccc1)NC(=O)O[C@H]1CO[C@H]2OCC[C@H]21)S(=O)(=O)c1ccc(N)cc1 [Darunavir],-5.63
19,Cc1nc(Nc2ncc(C(=O)Nc3c(C)cccc3Cl)s2)cc(N2CCN(CCO)CC2)n1 [Dasatinib],-5.73
20,O=C(O)c1ccc(-n2nc(-c3ccccc3O)nc2-c2ccccc2O)cc1 [Deferasirox],-4.93
21,COc1ccc2c(c1)CN(C)CC2c1ccc(Cl)c(Cl)c1 (stereo unspecified) [Diclofensine],-4.73
22,C/C=C(/C(=C/C)c1ccc(O)cc1)c1ccc(O)cc1 [Dienestrol],-5.08

row,Compound,AC50 for growth inhibition (log10 M)
1,OCCN(CCO)c1nc(N2CCCCC2)c2nc(N(CCO)CCO)nc(N3CCCCC3)c2n1 [Dipyridamole],-4.68
2,C[C@@H]1CCO[C@H]2CN\3/C=C(/C(=O)NCC4=C(F)C=C(F)C=C4)C(=O)\C(=C3C(=O)N12)O [Dolutegravir],-4.78
3,C[C@@H]1[C@H]\2[C@H](O)[C@H]3[C@H](N(C)C)\C(=C(C(N)=O)/C(=O)[C@@]3(O)\C(=C2C(=O)C4=C(O)C=CC=C14)O)O [Doxycycline],-4.68
4,NC(=O)C1CCCc2c1[nH]c1ccc(Cl)cc21 (stereo unspecified) [EX-527],-4.78
5,CS[C@H]1SC[C@@H]2C(=O)N(C)[C@H](C(C)C)C(=O)OC[C@H](NC(=O)c3cnc4ccccc4n3)C(=O)N[C@H](C)C(=O)N(C)[C@H]1C(=O)N(C)[C@H](C(C)C)C(=O)OC[C@H](NC(=O)c1cnc3ccccc3n1)C(=O)N[C@H](C)C(=O)N2C [Echinomycin],-8.33
6,NCCCC(N)(C(=O)O)C(F)F (stereo unspecified) [Eflornithine Hydrochloride],-4.78
7,CC1=NN(c2ccc(C)c(C)c2)C(=O)/C1=N/Nc1cccc(-c2cccc(C(=O)O)c2)c1O [Eltrombopag olamine],-4.83
8,CCCCCCCCCCCC/1=C(O)/C(=O)/C=C(O)\C1=O [Embelin],-6.03
9,COc1cc([C@@H]2c3cc4c(cc3[C@@H](O[C@@H]3O[C@@H]5CO[C@@H](C)O[C@H]5[C@H](O)[C@H]3O)[C@H]3COC(=O)[C@H]23)OCO4)cc(OC)c1O [Etoposide],-5.33
10,C[C@]12CC[C@H]3[C@@H](CC(=C)\C4=C\C(=O)\C=C/[C@]34C)[C@@H]1CCC2=O [Exemestane],-4.83
11,COC1=CC=CC=C1C2=CC=CC(=C2)C/3=C(O)/C4=CC(=C(Cl)C=C4NC3=O)C#N [FASN MRK],-4.37
12,C=CC[C@@H]1/C=C(\C)C[C@H](C)C[C@H](OC)[C@H]2O[C@@](O)(C(=O)C(=O)N3CCCC[C@H]3C(=O)O[C@H](/C(C)=C/[C@@H]3CC[C@@H](O)[C@H](OC)C3)[C@H](C)[C@@H](O)CC1=O)[C@H](C)C[C@@H]2OC [FK-506],-5.18
13,N=C(CCSCc1csc(N=C(N)N)n1)N[S+](N)(=O)[O-] [Famotidine],-4.78
14,Clc1ccc(C(Cn2ccnc2)OCc2ccc(Sc3ccccc3)cc2)c(Cl)c1 (stereo unspecified) [Fenticonazole nitrate],-4.73
15,OC1=CC2=C(C=C1)C(=O)\C(=C(O2)\C3=CC(=C(O)C=C3)O)O [Fisetin],-4.63
16,NC/1=N/C(=O)N/C=C1F [Flucytosine],-4.88
17,CCOC(=O)c1ncn2c1CN(C)C(=O)c1cc(F)ccc1-2 [Flumazenil],-4.63
18,CC(C)n1c(/C=C/[C@H](O)C[C@H](O)CC(=O)[O-])c(-c2ccc(F)cc2)c2ccccc21 [Fluvastatin],-5.38
19,CCOP(=O)(OCC)C(C)NC(=O)N(CCCl)N=O (stereo unspecified) [Fotemustine],-5.13
20,CN(C)C1=C(Br)C=C(C=C1)C\2NC3=C(\C4=C2C(=O)CC(C)(C)C4)C5=CC=CC=C5C=C3 (stereo unspecified) [GLS968],-5.23
21,Cc1c(CN2CCN([S+](C)(=O)[O-])CC2)sc2c(N3CCOCC3)nc(-c3cnc(N)nc3)nc12 [GNE-477],-7.68
22,NC(=O)c1cccc(-c2cc(Nc3ccc(OC(F)(F)F)cc3)ncn2)c1 [GNF 2],-4.73

row,Compound,AC50 for growth inhibition (log10 M)
1,O=C(Nc1nc2cccc(-c3ccc(CN4CC[S+](=O)([O-])CC4)cc3)n2n1)C1CC1 [GPLG-0634],-4.73
2,CC(C)(C)OC(=O)CN(Cc1ccc(Cl)cc1)Cc1ccc([N+](=O)[O-])s1 [GSK-4112],-4.68
3,Cc1cc(SCc2sc(-c3ccc(C(F)(F)F)c(F)c3)nc2C)ccc1OCC(=O)O [GW-0742],-4.78
4,O=C1Nc2ccc(I)cc2/C1=C/c1cc(Br)c(O)c(Br)c1 [GW-5074],-4.93
5,N\C1=N\C2=C(N=C[N]2COC(CO)CO)C(=O)N1 [Ganciclovir],-5.28
6,CNC1[C@@H](O)C(O[C@@H]2C(O)C(O[C@H]3O[C@H]([C@@H](C)NC)CC[C@H]3N)[C@@H](N)C[C@H]2N)OC[C@]1(C)O (stereo partly specified) [Gentamycin sulfate],-4.73
7,O=c1cc(O)c(Cl)c[nH]1 [Gimeracil],-4.68
8,Cc1cnc(C(=O)NCCc2ccc([S+](=O)([O-])NC(=O)NC3CCCCC3)cc2)cn1 [Glipizide],-4.78
9,COCCOC(=O)C/1=C(C)/NC/2=C(C1C3=CC=CC(=C3)O)/C(=O)CC(C2)C4=C(OC)C=CC=C4 (stereo unspecified) [HPI-1],-4.73
10,CN(C)CCN(Cc1ccc(Cl)cc1)c1ccccn1.Cl [Halopyramine],-4.68
11,CC(C)(C)OC(=O)Nc1ccc(-c2cc(C(=O)NCCCCCCC(=O)NO)no2)cc1 [ISOX],-5.58
12,Cc1cc(/C=c2/sc3nc4ccccc4n3c2=O)c(C)n1-c1ccccc1 [ITX3],-4.88
13,CC1=CC=C2N=C(NC(=O)CS\C3=N\C4=C(\SCC4)C(=O)N3C5=CC=CC=C5)SC2=C1 [IWP-2],-5.18
14,CCCCCCCN(CC)CCCC(O)c1ccc(NS(C)(=O)=O)cc1.CCCCCCCN(CC)CCCC(O)c1ccc(NS(C)(=O)=O)cc1.O=C(O)/C=C/C(=O)O (stereo unspecified) [Ibutilide fumarate],-4.68
15,COC1=CC=C(C=C1)C/2=C(OC3O[C@@H](C)[C@H](O)[C@@H](O)[C@H]3O)/C(=O)C4=C(O2)C(=C(OC5O[C@H](CO)[C@@H](O)[C@H](O)[C@H]5O)C=C4O)CC=C(C)C (stereo partly specified) [Icariin],-4.93
16,CC(=O)N(C)c1cccc(-c2ccnc3c(C(=O)c4cccs4)cnn23)c1 [Indiplon],-4.68
17,O=C1Nc2ccccc2/C1=C1\Nc2ccccc2C1=O [Indirubin],-5.18
18,C/C=C(/C)C(=O)O[C@H]1C(C)=C[C@]23C(=O)[C@@H](C=C(CO)[C@@H](O)[C@]12O)[C@H]1[C@@H](C[C@H]3C)C1(C)C [Ingenol mebutate],-7.18
19,CC(C)OC1=CC=C2C(=C1)O\C=C(/C2=O)C3=CC=CC=C3 [Ipriflavone],-4.78
20,Cc1csc(NC(=O)c2sc3nc4c(c(C(F)(F)F)c3c2N)CCC4)n1 [Irestatin 9389],-4.68
21,CCn1c(=O)c2c(nc(/C=C/c3ccc(OC)c(OC)c3)n2C)n(CC)c1=O [Istradefylline],-4.73
22,CCC(C)N1\N=C/N(C1=O)C2=CC=C(C=C2)N3CCN(CC3)C4=CC=C(OC[C@H]5CO[C@@](C[N]6C=NC=N6)(O5)C7=CC=C(Cl)C=C7Cl)C=C4 (stereo partly specified) [Itraconazole],-5.58
